This test concerns mast cells in the mesenteric interstitial substance. The experiment in a line: Percentage of mast cells degranulation after I/R (toluidine blue). The format is in vivo. Conditions: 60 min of reperfusion, rat.
Where [1] appears, read: post-administration, 5 mg/kg/h continuous i.v. drip from 20 min after ischemia (DLA: 10 min after I/R).
Setting [2] is: pre-administration, 5 mg/kg/h continuous i.v. drip from 20 min before ischemia.

Entries after “also recorded” stand apart in the source; their conditions may differ.

Take `CC(C)=CCC[C@](C)(O[C@@H]1O[C@H](CO)[C@@H](O)[C@H](O)[C@H]1O)[C@H]1CC[C@]2(C)[C@@H]1[C@H](O)C[C@@H]1[C@@]3(C)CC[C@H](O)C(C)(C)[C@@H]3[C@@H](O[C@@H]3O[C@H](CO)[C@@H](O)[C@H](O)[C@H]3O[C@@H]3OC[C@@H](O)[C@H](O)[C@H]3O)C[C@]12C` [R1, Notoginsenoside R1]: the “inhibition of the increase in the percentage of mast cells degranulation caused by I/R” value by setting is: under setting [1], “can significantly inhibit”; under setting [2], “can significantly inhibit”.

Take `O=C(O)C(O)Cc1ccc(O)c(O)c1` (stereo not shown) [DLA, 3,4-dihydroxyphenyl lactic acid]: the “inhibition of the increase in the percentage of mast cells degranulation caused by I/R” value was “had no significant inhibitory effects; also recorded: without the significant inhibition” under setting [1] and “can significantly inhibit” under setting [2].

(Values after patent US9101640B2, “Use of Danshensu, Notoginsenoside R1 or their combination in preparation of medicaments for preventing and treating diseases caused by microcirculation disorder” (Tasly Pharmaceutical Group Co., Ltd., priority 2009, dated 2015).)
